For assay [1], the system named is Cell membrane. The experiment in a line: Induction of inner membrane permeability in Escherichia coli assessed as cytoplasmic beta-galactosidase release at 5 uM using ONPG.
Assay [2] deals with Pseudomonas aeruginosa. The experiment in a line: Sensitization of colistin-induced antimicrobial activity against multidrug-resistant Pseudomonas aeruginosa infected in ICR CD1 mouse model of sepsis protection model assessed as increase in mouse survival at 25 mg/kg, sc QD for 1 days co-treated with 40 mg/kg, sc QD colistin. Type of assay: functional. To be noted: time 1 day.

The test system of assay [3] is Lipopolysaccharide (LPS). The experiment in a line: Binding affinity to inner core/lipid A region of LPS in Escherichia coli ATCC 25922 at 1.25 uM incubated for 10 mins by protein-retention expansion microscopy.
For assay [4], the system named is Escherichia coli. The experiment in a line: Antimicrobial activity against NDM-1 producing carbapenem-resistant Escherichia coli infected in ICR CD1 mouse model of sepsis protection model assessed as increase in mouse survival at 40 mg/kg, sc QD. The class given is functional, organism-based.
Assay [5] deals with Cell membrane. Kind of assay: Induction of cell membrane fluidity changes in Escherichia coli D21f2 by Laurdan-dye based fluorescence assay. The class given is subcellular.
The test system of assay [6] is Escherichia coli. The experiment in a line: Sensitization of rifampicin-induced antimicrobial activity against Escherichia coli ATCC 25922 assessed as inhibition of bacterial growth at 4 to 8 ug/ml incubated for 18 hrs by CLSI based method. The settings on record: dose microg/ml 4-8. Type of assay: functional.
The subject of assay [7] is Pseudomonas aeruginosa. Kind of assay: Antimicrobial activity against multidrug-resistant Pseudomonas aeruginosa infected in ICR CD1 mouse model of sepsis protection model assessed as increase in mouse survival at 40 mg/kg, sc QD. The class given is functional, organism-based.
Assay [8] concerns Cell membrane. Kind of assay: Induction of outer membrane re-arragenemnts in Escherichia coli D21f2 incubated for 4 mins by NPN uptake assay. Type of assay: subcellular.
The subject of assay [9] is Lipopolysaccharide (LPS). The experiment in a line: Binding affinity to O-antigen-deficient Escherichia coli LPS in POPE/POPG lipid layers containing O-antigen-deficient LPS by SPR assay. On the technique in general: In SPR one partner is held on a chip, and binding of the other changes the refractive index at the surface.
Assay [10] concerns Escherichia coli. Kind of assay: Binding affinity to inner membrane using POPE/POPG (7/3) by SPR assay.
Assay [11] deals with Lipopolysaccharide (LPS). Kind of assay: Binding affinity to LPS in Escherichia coli D21e7 assessed as localization in membrane regions at 1 uM using TAMRA-labeled compound by confocal fluorescence microscopy.
Assay [12] has as its system Escherichia coli. Kind of assay: Sensitization of linezolid-induced antimicrobial activity against Escherichia coli ATCC 25922 infected in ICR CD1 mouse model of sepsis protection model assessed as increase in mouse survival at 30 mg/kg, ip q1h x 8 hrs for 7 days co-treated with 25 mg/kg, sc q4h x 8 hrs linezolid. The class given is functional, organism-based. The settings on record: time 7.0 day.

In assay [13] the test system is Escherichia coli. Kind of assay: Sensitization of linezolid-induced antimicrobial activity against Cst-resistant Escherichia coli isolates assessed as inhibition of bacterial growth at 8 ug/ml incubated for 18 hrs by CLSI based method. To be noted: dose 8.0 µg/ml. The class given is functional, organism-based.

The source made the active and inactive calls. The rule behind the calls is not given here.

With Ac-KLLKLLKKPLKLLK-NH2, the outcome in assay [1], in [4], in assay [5], in assay [7] and in assay [8] was inactive. The Activity in assay [2] is 75%. The result in assay [3], in assay [9], in [10], in [11], in assay [12] and in assay [13] was Active. Besides, the “fold change (FC)” value in assay [6] is “<=212”.

Source of the values: ChEMBL document CHEMBL4699652, “Proline Hinged Amphipathic α-Helical Peptide Sensitizes Gram-Negative Bacteria to Various Gram-Positive Antibiotics” (J Med Chem, 2020).
